Reference: ChEMBL document CHEMBL1147279, “6-Desmethoxyhormothamnione, a new cytotoxic styrylchromone from the marine cryptophyte Chrysophaeum taylori” (1989)
In brackets after ≈: the same amount, converted by molar mass. Activity calls are given as the source filed them. No cut-off for these calls is given here.

What was measured:
[1] = Cytotoxicity against human 9KB cells; assay type: functional; conditions: read-out: LD50 (the source's name)
Staphylococcus aureus = experiment: Antimicrobial activity against Staphylococcus aureus at 100 ug by paper disk assay; assay type: functional, organism-based
Escherichia coli = experiment: Antimicrobial activity against Escherichia coli at 100 ug by paper disk assay; assay type: functional, organism-based
Pseudomonas aeruginosa = experiment: Antimicrobial activity against Pseudomonas aeruginosa at 100 ug by paper disk assay; assay type: functional, organism-based
Candida albicans = experiment: Antimicrobial activity against Candida albicans at 100 ug by paper disk assay; assay type: functional, organism-based
Bacillus subtilis = experiment: Antimicrobial activity against Bacillus subtilis at 100 ug by paper disk assay; assay type: functional, organism-based

Structure (SMILES): COc1cc(O)c2c(=O)c(C)c(/C=C/c3cc(O)cc(O)c3)oc2c1OC
- CC50 [1]: 1 mg/L (≈ 2.7 µM)
- Activity (Staphylococcus aureus): inactive
- Activity (Escherichia coli): inactive
- Activity (Pseudomonas aeruginosa): inactive
- Activity (Candida albicans): inactive
- Activity (Bacillus subtilis): inactive
